# Laboratory results as given in patent publication US9320772B2, “Herbal composition for treating anxiety related conditions” (OPMOP LTD., priority 2010, dated 2016).
# Entries after “also recorded” stand apart in the source; their conditions may differ.
# Tests used:
# C57BL/6 mice = experiment: Open Field Test in mice after chronic stress (MSP); type: in vivo
# Experimental: C57BL/6 male and female infant mice were subjected to chronic stress (MSP) by separation from the dam for 6 hours per day from day 1 to day 14. Anxiety behavior was tested after different anxiolytic treatments. The mice received a daily i.p. injection from day 28 of age for two weeks, of one of the following drugs: Citalopram (10 mg/kg), or the adaptogenic composition of the invention comprising Hawthorn fruit, wheat grain and Lilly Bulb (10 mg/kg). The anxiety behavior was tested in the Open Field Test.
# BALB mice = experiment: Novel open field test after acute stress (Yohimibine injection); type: in vivo; settings: 15 mg/kg/day i.p., three weeks of treatment, after Yohimibine i.p. 1.25 mg/kg, p<0.05 adaptogenic mixture, p<0.0.1 escitalopram
# Experimental: FIG. 2A: Effect of treatment in the novel open field Test following one week of treatment. FIG. 2B: Effect of treatment in the novel open field Test following two weeks of treatment. […] Mice were treated through i.p. injection with the adaptogenic mixture (15 mg/kg/day), escitalopram (15 mg/kg/day) or vehicle. The acute stress was obtained with Yohimibine i.p injection, a drug known to activate a stress-reaction (Vasa et al., 2009). […] The Novel Open Field is another well-established test of anxiety-related behavior in rodents. The Open Field area generally consists of an empty and bright square arena, surrounded by walls to prevent the rodent from escaping. The rodent is usually placed in the center of the arena and its behavior recorded over a chosen period. The Novel Open Field task approaches the conflict between the innate fear that rodents have of the central area of a novel or brightly lit open field versus their desire to explore new environments. When anxious, the natural tendency of rodents is to prefer staying close to the walls. In this context, anxiety-related behavior is measured by the degree to which the rodent avoids the center of the arena.
# ICR mice = experiment: Elevated plus maze after maternal separation and unpredictable chronic mild stress, treatment after stress; type: in vivo; settings: stressed ICR mice, 15 mg/kg i.p., 21 days, p<0.05
# Experimental: On the day of parturition, PND 0 (postnatal day), litters were randomly assigned to undergo MS or to be standard facility reared (SFR) controls. SFR animals were left undisturbed during the entire stress manipulation (both maternal separation and unpredictable chronic mild stress manipulation), except for routine cage maintenance performed once a week. MS procedure was carried out once per day from PND 1-14. The MS procedure was performed by removing the pups from the home cage and placing them together in a separate clean cage placed on a heating pad (30-33° C.) in order to keep the pups in a temperature close to the dam's natural body temperature. 6 hours later, pups were returned to their home cage. […] Elevated plus-maze: Each mouse was placed in the center of the elevated plus maze and his behavior was recorded for the duration of 5 minutes. […] Subsequent to the stress manipulations, anxiety-like behavior was assessed via the elevated plus maze in order to assess the effect of the stress manipulations. […] Following three weeks of treatment with the relevant drug or vehicle, anxiety-like behavior was assessed via the elevated plus maze. 48 hours thereafter and while mice were still receiving treatment, blood samples were collected following acute stress and Corticosterone levels were measured via radio immunoassay (RIA) assay. […]
# Corticosterone [1] = experiment: Corticosterone levels following acute restraint stress (RIA), treatment after chronic stress; type: in vivo; settings: stressed ICR mice, 15 mg/kg i.p., 3 weeks, p<0.05 adaptogenic mixture, p<0.01 escitalopram
# Experimental: In order to estimate the endocrinology reaction to acute stress mice were first placed in restraint. Restraint stress is a well documented stressor that initiates an acute transient increase in plasma ACTH and Corticosterone, usually peaking during the course of a 60 min stress exposure. Therefore, following 60 minutes of subjection to restraint stress, blood samples were collected into EDTA-coated tubes from the facial vein. All blood samples were kept on ice and later centrifuged for 10 min at 10000 rpm at 4°. Plasma was transferred to clean, labeled 1.5 ml microcentrifuge tubes. All plasma samples were stored frozen at −20 C.° until the determination of Corticosterone via RIA. Subsequent to the stress manipulations, anxiety-like behavior was assessed via the elevated plus maze in order to assess the effect of the stress manipulations. […] Following three weeks of treatment with the relevant drug or vehicle, anxiety-like behavior was assessed via the elevated plus maze. 48 hours thereafter and while mice were still receiving treatment, blood samples were collected following acute stress and Corticosterone levels were measured via radio immunoassay (RIA) assay. […] Anxiety-related behaviors were assessed using the elevated-plus maze and indicated anxiogenic effect of the stress manipulation. […]
# [2] = test system: mice subjected to maternal separation and unpredictable mild stress; experiment: Elevated plus maze, treatment during stress; type: in vivo; settings: 15 mg/kg i.p., 28 days during stress; control (saline) 44 seconds; p<0.05
# Experimental: (§1) The day following parturition, postnatal day (PND) 1, the litters underwent a Maternal Separation (MS) procedure that was carried out once a day from PND 1-14. At the age of 21 days, all pups were weaned and sexed. 90 male mice were tagged, weighed, and separated into cages of up to five mice per cage, assigned randomly into four groups of treatment as previously described. Between the age of 28 and 56 days (Adolescence), mice were subjected to an Unpredictable Mild Stress paradigm. In this experiment three different stressors were used—all mice were subjected once a day to one of the following stressors: restrainers; placement in an empty cage with water at the bottom; or inversion of light/dark cycle. To prevent habituation and to provide an unpredictable feature to the stressors, every day different stressor was administered for four hours, at different time points of the day. During the entire stress paradigm, drugs were administrated through i.p. injection of the relevant treatment, for the duration of 28 days. Upon reaching adulthood and following four weeks of treatment, behavior, peripheral hormones and brain monoamines were measured in order to assess the effects of the novel treatment. […]
# [3] = test system: mice subjected to maternal separation and unpredictable mild stress; experiment: Sucrose test, treatment during stress; type: in vivo; settings: escitalopram group (15 mg/kg as previously described) i.p., 28 days during stress; control (saline) 51 ml; p<0.05
# Experimental: The day following parturition, postnatal day (PND) 1, the litters underwent a Maternal Separation (MS) procedure that was carried out once a day from PND 1-14. At the age of 21 days, all pups were weaned and sexed. 90 male mice were tagged, weighed, and separated into cages of up to five mice per cage, assigned randomly into four groups of treatment as previously described. Between the age of 28 and 56 days (Adolescence), mice were subjected to an Unpredictable Mild Stress paradigm. In this experiment three different stressors were used—all mice were subjected once a day to one of the following stressors: restrainers; placement in an empty cage with water at the bottom; or inversion of light/dark cycle. To prevent habituation and to provide an unpredictable feature to the stressors, every day different stressor was administered for four hours, at different time points of the day. During the entire stress paradigm, drugs were administrated through i.p. injection of the relevant treatment, for the duration of 28 days. Upon reaching adulthood and following four weeks of treatment, behavior, peripheral hormones and brain monoamines were measured in order to assess the effects of the novel treatment. […] After the 12 hours, the amount of ordinary water, sucrose water and food eaten by the mouse, was calculated. […]
# Corticosterone [4] = experiment: Corticosterone levels following acute restraint stress (RIA), treatment during stress; type: in vivo, mice; settings: escitalopram group (15 mg/kg as previously described), 28 days during stress; control 80.9 ng/ml; p<0.05
# Experimental: as §1, with “treatment. In order to estimate the endocrinological reaction to acute stress, mice were first placed in restrainers.” for “treatment.”
# [5] = test system: Brain-derived neurotrophic factor (BDNF); experiment: Hippocampal BDNF levels by EIA, treatment during stress; type: in vivo, mice; settings: escitalopram group (15 mg/kg as previously described), 28 days during stress; control (saline) 12 pc/μg; p<0.05
# Experimental: The day following parturition, postnatal day (PND) 1, the litters underwent a Maternal Separation (MS) procedure that was carried out once a day from PND 1-14. At the age of 21 days, all pups were weaned and sexed. 90 male mice were tagged, weighed, and separated into cages of up to five mice per cage, assigned randomly into four groups of treatment as previously described. Between the age of 28 and 56 days (Adolescence), mice were subjected to an Unpredictable Mild Stress paradigm. In this experiment three different stressors were used—all mice were subjected once a day to one of the following stressors: restrainers; placement in an empty cage with water at the bottom; or inversion of light/dark cycle. To prevent habituation and to provide an unpredictable feature to the stressors, every day different stressor was administered for four hours, at different time points of the day. During the entire stress paradigm, drugs were administrated through i.p. injection of the relevant treatment, for the duration of 28 days. Upon reaching adulthood and following four weeks of treatment, behavior, peripheral hormones and brain monoamines were measured in order to assess the effects of the novel treatment.
# At the end of the experiment, all treated mice were sacrificed. The brains of the mice were placed in a mold on ice. […] Brain-derived neurotrophic factor (BDNF) was measured by EIA. […]
Compound,"Time inside the center of the arena, Open Field Test (C57BL/6 mice; MSP (chronically stressed) C57BL/6 mice, 10 mg/kg i.p. daily for two weeks, saline 1.8 seconds, n=16) [s]","Entries to the inside of the arena, Open Field Test (C57BL/6 mice; MSP C57BL/6 mice, 10 mg/kg i.p. daily for two weeks, saline 1.6 times, n=16) [times]","Time inside the center of the arena, Open Field Test (C57BL/6 mice; treated, unstressed mice, 10 mg/kg i.p., saline unstressed 4.5 seconds) [s]","Time spent inside the field of the control group in comparison to the treated group, novel open field (BALB mice)","Time spent in the open arms in comparison to control group, elevated plus maze (ICR mice)",Corticosterone levels following acute restraint stress in comparison to control group (Corticosterone [1]),"Time spent in the open arms, Elevated Plus Maze [2] [s]","Sucrose consumption, sucrose test [3] [mL]",Corticosterone levels following acute restraint stress (Corticosterone [4]) [ng/mL],BDNF levels (hippocampus) [5] [pc/μg]
CN(C)CCCC1(c2ccc(F)cc2)OCc2cc(C#N)ccc21 (stereo not shown) [Citalopram],2.5,2.4,4.6,,,,,,,
"CN(C)CCC[C@@]1(c2ccc(F)cc2)OCc2cc(C#N)ccc21 [escitalopram, Escitalopram]",,,,significantly less pronounced,significantly more time; also recorded: same effect,significantly lower; also recorded: same effect,64,55,77.3,16
